This is an account of results in EPA's ToxValDB 9.5 (doi:10.2903/j.efsa.2014.3801).

Usually NOAEL stands for the highest tested level that showed no adverse finding.

Molecules are shown by their SMILES. “And” between values parts separate entries of the source, which are not always exact repeats. Equal values may be shown once.

The test system of one data set is Anas platyrhynchos. The settings on record: reproductive.
The next data set concerns Apis mellifera. Particulars: acute, mortality.
In a further data set the test system is Colinus virginianus. The settings on record: acute, oral.
For another data set, the system named is Folsomia candida. Particulars: chronic/long-term.
A further data set deals with Oncorhynchus mykiss. Particulars: for LC50: acute, duration: 96 hours, mortality; for NOEC: chronic/long-term.
The subject of a further data set is Rattus norvegicus. Particulars: for LD50: acute; for NOAEL: reproduction developmental.
Another data set has as its system Tagia sp. The settings on record: for LC50: acute, mortality.
Another data set has as its system Typhlodromus pyri. Briefly: LR50; higher = less toxic. Particulars: acute; duration: 14 days; mortality.
A further data set relates to Daphnia magna. The settings on record: chronic/long-term; duration: 21 days.

Take `CCCCCCCCSC(=O)Oc1cc(Cl)nnc1-c1ccccc1` [Pyridate]: the NOAEL in the data set with Anas platyrhynchos came out at 100 mg/kg; in the data set on Rattus norvegicus, 18.8 mg/kg-day; in the data set on Rattus norvegicus (body weight) it was 165 mg/kg-day; in the data set with Rattus norvegicus (organ weight), 3.6 mg/kg-day. The LD50 in the data set with Apis mellifera (dermal) is > 100 µg/piece; in the data set with Apis mellifera (oral, unspecified) it was > 110 µg/piece; with Colinus virginianus, 1270 mg/kg; in the data set with Rattus norvegicus (oral, mortality), > 2000 mg/kg. The LC50 with Colinus virginianus (diet) was > 1250 mg/kg; with Oncorhynchus mykiss, > 1.01 µg/mL and 1.19 µg/mL; in the data set with Tagia sp., 400 mg/kg. The molecule further returned an NOEC in the data set on Folsomia candida of 112 mg/kg. Moreover, in the data set on Typhlodromus pyri, the LR50 was > 1360 g/ha.

`O=c1cc(Cl)[nH]nc1-c1ccccc1` [Pyridafol]: the NOEC was 5 mg/L with Daphnia magna; > 17 mg/L in the data set with Oncorhynchus mykiss (duration: 21 days); 0.1 mg/L in the data set with Oncorhynchus mykiss (duration: 69 days, other); 3.25 mg/kg in the data set on Tagia sp. (chronic/long-term). The LC50 is > 16.2 µg/mL with Oncorhynchus mykiss and 348 mg/kg in the data set with Tagia sp.. The molecule also yielded an LD50 in the data set on Rattus norvegicus (F) of 1420 mg/kg.
